Measured values from patent US20080051351A1, “Substances, Compositions, and Methods for Treating Alopecia” (priority 2005, published 2008).

Test system: testosterone 5α-reductase
Assay: Testosterone 5α-reductase micro radioassay (crude nuclear fraction of ventral prostate)
Type: biochemical
Settings: 0.1 mg/ml 17-alpha-estradiol, with or without 20 μg/ml UL-OHA; 37° C., 1 hour
Experimental: The effect of UL-OHA on inhibiting increase in testosterone 5α-reductase activity can be verified with a micro radioassay.
Biopsies of ventral prostate homogenized with 9 volumes of 0.1 M PBS are filtered through gauze and centrifuged at 3000 rpm for 10 minutes to obtain a crude nuclear fraction. The supernatant is discarded and the pellet resuspended in PBS. This process is repeated once again and the second suspension is used as enzyme solution for the assay.
1 mCi of [4-^14C] testosterone with 17-alpha-estradiol+UL-OHA (calculated for a final conc. of 0.1 mg/ml and 20 μg/ml respectively) and 17-alpha-estradiol (final conc. 0.1 mg/ml) are placed in test tubes and heated to dryness under nitrogen flow. 10 μl of 50 mM NADPH, 60 μl of PBS and 30 μl of testosterone 5α-reductase solution are added and the test tubes and incubated at 37° C. for 1 hour. Finally 0.4 ml of chloroform:methanol (1:2 v/v) are added in order to terminate the reaction and the mixture is centrifuged at 3000 rpm for 10 minutes. […]
The radioactive activity of each extract based on the resulting quantity of testosterone, 5α-dihydro-testosterone, 5α-androstan-3α,17β-diol and 5α-androstan-3β,17β-diol is measured by reading the intensity of isotope emission from the plates as described by Hamada K et al. (IFSCC Magazine 4(2):83-87, 2001). […]

Percentage inhibition of testosterone conversion relative to the control (anti-androgenic activity): 20%
Structure (SMILES): C[C@]12CC[C@@H]3c4ccc(O)cc4CC[C@H]3[C@@H]1CC[C@H]2O [17-alpha-estradiol]
